Experimental findings from US7094428B2, “Hemostatic compositions, devices and methods” (The University of Medicine and Dentistry of New Jersey, priority 2000, dated 2006) are described below.

The test system of assay [1] is recalcified, citrated whole blood. The assay is described as follows: SONOCLOT clotting time of recalcified, citrated whole blood. It is filed as biochemical. As to the method:
In such studies, anti-coagulated, citrated whole blood is recalcified to initiate the clotting process in a device which sensitively monitors the formation of the clot. Studies have been expanded from whole blood to include plasma.
(§1) Results were expressed as clotting time in seconds. […] Results are expressed as mean±standard deviation.
(§2) Silver (I) ion was provided as silver nitrate, 5% stock solution. It was diluted 100 fold to 0.05%, or in some cases to 0.01% in the clotting studies. In perfusion studies, a 10 μl aliquot of the solution was applied to the filter paper then dried.
Collagen was from Sigma Chemical Co. […] Heparinase was from Haemoscope Corp. and used at a final concentration of 1 U/mL.

Assay [2] has as its system citrated blood anticoagulated with heparin. The assay can be described thus: SONOCLOT clotting (recalcification) time of heparinized citrated blood. In kind it is biochemical. The protocol:
as §1, §2
Collagen was from Sigma Chemical Co. In the clotting time studies, the final concentration of collagen was 0.1-0.2%. Heparinase was from Haemoscope Corp. and used at a final concentration of 1 U/mL.
Recalcification time was measured.

Assay [3] has as its system recalcified, citrated whole blood. The assay is described as follows: Blood perfusion (spread of blood disk) on filter paper impregnated with the composition. As to the method:
as §1, §2
The size of the blood disk on the paper was measured.

Assay [4] has as its system Platelet Poor Plasma (PPP). Conditions: 2.9 mM AgNO3, n = 8. The protocol:
(§3) The hemostatic compositions of the invention were evaluated in two different systems. In one system, clotting time of recalcified, citrated whole blood in the presence of the hemostatic composition was determined using a SONOCLOT Coagulation Analyzer (Sienco Inc., Wheat Ridge Colo.). […] Results were expressed as clotting time in seconds. In a second system, the hemostatic composition was dried on a cellulose matrix (filter paper), and 7 μl aliquot of fresh blood or recalcified citrated whole blood was placed in the cellulose matrix; resulting in the spreading (perfusion) of the applied blood as an enlarging disk. Upon clotting or reduced perfusion, the further spread of the blood ceases. The surface area of the spread blood in mm^2 is used as an indication of the clotting rate of the blood. Results are expressed as mean±standard deviation. The number of samples run is indicated at the top of each data column.
(§4) This study was undertaken using platelet-rich and platelet-poor plasma to simulate an individual with normal and reduced platelet levels.

Assay [5] deals with Platelet Rich Plasma (PRP). The settings on record: 2.9 mM AgNO3, n = 8. As to the method: as §3, §4
The mark [6] stands for this setting: final concentration in blood: 1% collagen, 0.6 mM AgNO3 or the combination as labelled, n = 41.
[7] abbreviates: thrombin 0.025 U/mL final, silver ion 2.9 mM final, n = 8.
Where [8] appears, read: Study I, filter paper impregnated with 5% AgNO3, 2% collagen or the combination as labelled, n = 13.
The mark [9] stands for this setting: Study II, filter paper impregnated with 5% AgNO3, 2% collagen or the combination as labelled, n = 5.

Take `O=[N+]([O-])[O-].[Ag+]` [silver(I), silver nitrate]: the Clotting time in assay [1] (setting [6]) was found to be 220 ± 50 s; in assay [1] (non-heparinized blood, without silver 217 seconds), 81 s; in assay [1] (normal blood, 2.9 mM AgNO3, n = 8), 109 ± 20 s; in assay [1] (recalcified citrated whole blood, heparin not given, silver nitrate 0.05% (in some cases 0.01%), heparinase 1 U/mL, n = 5), 94 ± 35 s; in assay [1] (second study, without silver 588 seconds), 168 s; in assay [1] (setting [7]), 91 ± 14 s. In addition, the Clotting time was determined as 872 s in assay [2] (heparinized blood, without silver 1930 seconds); 128 ± 32 s in assay [4]; 83 ± 29 s in assay [5]. Moreover, the “clot strength, SONOCLOT tracing” value in assay [1] (non-heparinized blood) is listed as “the clot is stronger”; in assay [1] (second study), “stronger clot”. Further, the “clotting time (FIG. 4, C and D)” value in assay [2] (0.25 U/ml heparin, 0.05% or 0.3% silver (I) ion, absence of collagen) is on record as “prolonged clotting time”. The “physical characteristics of the clot (clot strength), SONOCLOT tracing” value in assay [2] (heparinized whole blood) is reported as “stronger clot”. For the same compound, the Perfusion worked out at 18 ± 4 mm in assay [3] (setting [8]); 42 ± 18 mm in assay [3] (Study II, filter paper impregnated with 1% AgNO3, n = 5); 17 ± 2 mm in assay [3] (setting [9]).

Turning to collagen, the Clotting time in assay [1] (setting [6]) was 264 ± 37 s. Besides, the Perfusion amounted to 35 ± 23 mm in assay [3] (setting [8]) and 28 ± 10 mm in assay [3] (setting [9]).

For the compound heparin [reference compound], the Clotting time in assay [2] (citrated blood with heparin 2 U/mL, recalcified, silver nitrate 0.05% (in some cases 0.01%), heparinase 1 U/mL, n = 5) is 1930 ± 83 s.

For the compound thrombin, the Clotting time in assay [1] (setting [7]) came out at 156 ± 42 s.
